Earlier results, collected in patent US20120141548A1, “NOVEL FORMULATION OF MELOXICAM” (FUNDACIONUNIVERSIDAD DEL NORTE, priority 2009, published 2012).

Key:
[1] = conventional meloxicam

Cc1cnc(NC(=O)C2=C(O)c3ccccc3S(=O)(=O)N2C)s1 [Meloxicam, meloxicam]
Tmax [1]: 4 to 5 h
water solubility: poorly water soluble
